Measured values reported in US7893048B2, “2-azetidinone derivatives as cholesterol absorption inhibitors for the treatment of hyperlipidaemic conditions” (AstraZeneca AB, priority 2005, dated 2011).

Legend:
[1] = system: 14C-cholesterol absorption; test: In vivo testing of cholesterol absorption inhibitors (A); details: Mus musculus, po; 0.2 μmol/kg by gavage, procedure A, C57BL/6 female mice
Protocol: In Vivo Testing of Cholesterol Absorption Inhibitors (A)
C57BL/6 female mice were maintained on regular chow diet and housed in individual cages to collect faeces. Mice were fasted for 3 hours and then gavaged with vehicle or compound. Half an hour later the mice were gavaged with radiolabelled cholesterol. Six hours after the ^14C-cholesterol gavage blood samples were taken via the tail and plasma prepared to determine how much cholesterol were absorbed. 24 hours after the gavage of ^14C-cholesterol the mice were bled and plasma were prepared for analysis. Faeces were collected for 24 hours to assess absorption efficiency.

[2] = Absorption in a Caco-2 cells model; format: in vitro ADME; details: human
Protocol: Absorption of the compounds of formula (I) was tested in a Caco-2 cells model (Gastroenterology 1989, 96, 736): […]

Papp [2]	Structure (SMILES)	inhibition at 0.2 µmol/kg [1]
–	CC(C)(C)[C@@H](NC(=O)CNC(=O)COc1ccc([C@@H]2[C@@H](SCC(O)c3ccc4c(c3)CCO4)C(=O)N2c2ccc(F)cc2)cc1)C(=O)O (stereo partly drawn) [Example 4, N-({4-[(2R,3R)-3-{[2-(2,3-dihydro-1-benzofuran-5-yl)-2-hydroxyethyl]thio}-1-(4-fluorophenyl)-4-oxoazetidin-2-yl]phenoxy}acetyl)glycyl-3-methyl-D-valine]	53%
0.05 ×10⁻⁶ cm/s	O=C(COc1ccc([C@@H]2[C@@H](SCC(O)c3ccc4c(c3)CCO4)C(=O)N2c2ccc(F)cc2)cc1)NCC(=O)N[C@H](CC1CCCCC1)C(=O)O (stereo partly drawn) [Example 1, N-({4-[(2R,3R)-3-{[2-(2,3-dihydro-1-benzofuran-5-yl)-2-hydroxyethyl]thio}-1-(4-fluorophenyl)-4-oxoazetidin-2-yl]phenoxy}acetyl)glycyl-3-cyclohexyl-D-alanine]	–
–	NCCCC[C@@H](NC(=O)CNC(=O)COc1ccc([C@@H]2[C@@H](SCC(O)c3ccc4c(c3)CCO4)C(=O)N2c2ccc(F)cc2)cc1)C(=O)O (stereo partly drawn) [Example 3, N-({4-[(2R,3R)-3-{[2-(2,3-dihydro-1-benzofuran-5-yl)-2-hydroxyethyl]thio}-1-(4-fluorophenyl)-4-oxoazetidin-2-yl]phenoxy}acetyl)glycyl-D-lysine]	59%
